According to patent US12398121B2 (Nuvation Bio Inc., priority 2018, dated 2025):

These compounds were tested against T1, ER Alpha-LBD (GST) (Homo sapiens, UniProt P03372) (assay: ER binding assay (LanthaScreen TR-FRET ER Alpha Competitive Binding Assay)). Conditions: Fluormone ES2 Green tracer, read-out: ERα Ki.
T1 construct: purchased Thermo Fisher
T1 sequence (P03372 311-547 limits assumed): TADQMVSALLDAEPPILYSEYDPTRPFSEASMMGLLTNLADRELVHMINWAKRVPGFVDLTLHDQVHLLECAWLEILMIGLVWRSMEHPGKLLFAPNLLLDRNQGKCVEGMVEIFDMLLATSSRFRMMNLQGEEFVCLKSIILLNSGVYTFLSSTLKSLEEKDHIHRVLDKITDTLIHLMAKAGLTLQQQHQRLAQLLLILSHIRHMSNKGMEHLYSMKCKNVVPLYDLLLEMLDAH
Description: Cells were plated at varying density in the respective growth medium in 96 well plates. 24 hr later, cells were treated, in triplicate or quadruplicate, with test articles prepared in a range of concentrations by series dilution of DMSO stock solutions in growth medium and incubated for three to seven days. The number of viable 22RV1 and HT-29 cells was measured using CellTiter Glo assay (CTG, Promega, Madison, WI) after three days of treatment. The other types of cancer cells were re-treated at three or four days and the number of viable cells was measured using CTG assay after a total treatment time of six or seven days. Cell viability data were plotted using GraphPad Prism (GraphPad Software, Inc., San Diego, CA). In addition, a nonlinear regression model with a sigmoidal dose response and variable slope within GraphPad Prism was used to calculate the IC50 value of individual test articles. Additional cell proliferation assays: Other cancer cell lines are tested in a cell proliferation assay. For example, SK-OV-3 or OVCAR3 ovarian cancer cells are tested. Cells are cultured in medium recommended by the supplier (e.g., ATCC or JCRB Cell Bank), at 37° C. in a 5% CO2 environment. For the proliferation assay, cells are plated in the growth medium in 96 well plates. Seeding density is adjusted according to the cell type. […] The number of viable cells is measured using CellTiter Glo assay (CTG, Promega, Madison, WI) or similar. […] ER binding assay: ERα binding was assessed by the LanthaScreen® TR-FRET ER Alpha Competitive Binding Assay at Thermo Fisher. […] Competitive binding to the ER Alpha-LBD (GST) was detected by a test compound's ability to displace a fluorescent ligand (Fluormone™ ES2 Green tracer) from the ER Alpha-LBD (GST), which results in a loss of FRET signal between the Tb-anti-GST antibody and the tracer. […] After an incubation period at room temperature, the TR-FRET ratio of 520:495 emissions were calculated and was used to determine the IC50 from a dose response curve of the compound. […]

Row | Structure (SMILES) | Ki
1 | CN(CCCCCC(=O)N1CCN(C(=O)c2cc(Cc3n[nH]c(=O)c4ccccc34)ccc2F)CC1)CCOc1ccc(C(=O)c2c(-c3ccc(O)cc3)sc3cc(O)ccc23)cc1 [Compound 2.4, 4-(4-fluoro-3-(4-(6-((2-(4-(6-hydroxy-2-(4-hydroxyphenyl)benzo[b]thiophene-3-carbonyl)phenoxy)ethyl)(methyl)amino)hexanoyl)piperazine-1-carbonyl)benzyl)phthalazin-1(2H)-one] | 5 nM
2 | CCC(=C(c1ccc(O)cc1)c1ccc(OCCN2CCN(C(=O)c3cc(Cc4n[nH]c(=O)c5ccccc45)ccc3F)CC2)cc1)c1ccccc1 [Compound 2.14, 4-(4-fluoro-3-(4-(2-(4-(1-(4-hydroxyphenyl)-2-phenylbut-1-enyl)phenoxy)ethyl)piperazine-1-carbonyl)benzyl)pthalazin-1(2H)-one] | 3.5 nM
3 | O=C(c1ccc(OCCN2CCN(C(=O)c3cc(Cc4n[nH]c(=O)c5ccccc45)ccc3F)CC2)cc1)c1c(-c2ccc(O)cc2)sc2cc(O)ccc12 [Compound 2.13, 4-(4-fluoro-3-(4-(2-(4-(6-hydroxy-2-(4-hydroxyphenyl)benzo[b]thiophene-3-carbonyl)phenoxy)ethyl)piperazine-1-carbonyl)benzyl)phthalazin-1(2H)-one] | 3.3 nM
